# Experimental data from ChEMBL document CHEMBL1142729 (J Med Chem, 2005).
# Assays:
# Carbonic anhydrase 2 = Carbonic anhydrase 2 (Homo sapiens, UniProt P00918); test: Inhibitory constant value for Carbonic anhydrase II in human determined in pH-shift assay
# [1] = Inhibition concentration for carbonic anhydrase I and carbonic anhydrase II in rat determined in CO2 hydration assay
IC50 [1] [µM],Structure (SMILES),IC50 (Carbonic anhydrase 2) [µM]
,NS(=O)(=O)OCC1Oc2ccccc2O1,0.28
8.9,CC1(C)O[C@@H]2[C@@H](CO[C@@]3(COS(N)(=O)=O)OC(C)(C)O[C@@H]23)O1 [TOPIRAMATE],
